Assays:
Format in all cases: cell-based, human
[1] = tested on: Toll-like receptor 9; assay: IL-6 production in BEAS-2B cells in the presence of ssDNA ligand ODN
[2] = tested on: TLR3 signaling; assay: IL-6 production (ELISA) in BEAS-2B cells induced with poly(I:C); details: BEAS-2B cells
Method: (§1) IL-6 production was quantified by ELISA using the OptEIA™ kit (BD Biosciences). A typical assay used 2×10^4 BEAS-2B cells/well grown for 24 h in flat bottom 96-well plates. Poly(I:C) was added to a final concentration of 0.13 μg/ml. Antimicrobial peptides were added to the cell culture medium to a final concentration of 3 μM unless specified otherwise. All ELISA results shown were performed in triplicate and in at least three independent experiments.
To better define how residues in LL-37 contribute to function, several variants derived from LL-37 were tested for: 1) repression of TLR4 signaling by LPS, 2) enhancement of TLR3 signaling by poly(I:C), and 3) binding to LL-37. Signaling by TLR3 and TLR4 were monitored using ELISA to detect IL-6 secreted into the medium of BEAS-2B cells.

[3] = tested on: Reovirus dsRNA, Reo S4; assay: IL-6 production in BEAS-2B cells in the presence of Reovirus dsRNA Reo S4
Method: as §1
Herein, we analyzed the LL-37 orthologs from Rhesus monkeys, pig, sheep, guinea pigs, rabbit, as well as mouse (FIG. 14A). All peptides were chemically synthesized and assayed for the induction of inflammatory cytokine IL-6 in the presence of the double-stranded RNA mimic, poly(I:C) or the Reovirus dsRNA, Reo S4 (FIGS. 14B and 14C). […] Importantly, all LL-37 orthologs tested had the ability to reduce IL-6 production in response to LPS (FIG. 14E).

PAMP-37: LL-37 ortholog from pig, SEQ ID NO: 22 (GLLSRLRDFLSDRGRRLGEKIERIGQKIKDLSEFFQS; (1)..(37) Pig PMAP-37; listed as Sus scrofa)
Induction of signaling by the ssDNA ligand for Toll-like receptor 9, in words [1]: failed to induce signaling
Enhancement of TLR3 signaling / poly(I:C)-induced IL-6, in words [2]: failed to enhance signaling
Enhancement of IL-6 production / signaling by Reo S4, in words [3]: failed to enhance signaling

Reference: US10138282B2, “Peptide antagonist of LL-37” (INDIANA UNIVERSITY RESEARCH AND TECHNOLOGY CORPORATION, priority 2014, dated 2018)
